Here are results for one compound from patent EP0470144B1, “BETA-HYDROXAMATE D-ASPARTIC ACID FOR TREATMENT OF VIRAL INFECTIONS AND TUMOURS” (priority 1989, dated 1990).

One data set relates to leucémie L1210. In words: Antitumour activity in the L1210 leukaemia model, survival. The class given is in vivo, souris B6D2F1/J. The following applies: for Nombre d'animaux survivants: at 30 days. The text has this:
L'activité antitumorale du DAH et du LAH a été étudiée sur le modèle de leucémie L1210. Les cellules leucémiques L1210 sont maintenues par passages intrapéritonéaux dans la souris B6D2F1/J mâle. […] La durée d'observation est de 30 jours.

A short description of data set [1]: LD50 comparison of DAH and LAH. The following applies: in vivo.

On to `N[C@@H](CC(=O)NO)C(=O)O` [LAH, L-aspartique acide β hydroxamate, reference compound], for which the T/Cx100 is given as 50% with leucémie L1210 (1,5 g/kg x4/j, day 1) and 65% in the data set on leucémie L1210 (1 g/kg x4/j, days 1,2). Besides, the “Nombre d'animaux survivants” value is recorded as 0/5 with leucémie L1210 (1,5 g/kg x4/j, day 1) and 0/5 in the data set on leucémie L1210 (1 g/kg x4/j, days 1,2). Besides, in the data set on leucémie L1210 (lighter protocol than for DAH), the activité antitumorale result is “on n'a pas observé d'activité antitumorale”. Further, the toxicité entry is recorded as “toxicité très importante” with leucémie L1210 (lighter protocol, treated animals died before the control group) and “très toxique” in the data set on leucémie L1210 (same dosage conditions as DAH (1 g/kg, 4 times a day, 3 days)). Further, the “DL 50 %” value in data set [1] is given as 2,5 g/kg.
